Read-outs that look alike come from different tables or passages of the source.
Experiments:
[1] = system: TriPS cells
[2] = system: ERK1; test: Hypromatrix Array phosphorylation, TRiPS cell extracts; format: cell-based, human; parameters: key to ERK1 phosphorylation score: 0 (negative); + to ++++ (positive); + to ++++ (positive); + to ++++ (positive); + to ++++ (positive); conditions: 30 minutes at 37° C., 0.5 mM DA-DKP or 1:500 dilution of HC 2626
Method: (§1) The mechanism of action of DA-DKP and HC 2626 (containing MR-DKP) was investigated. […] After the incubation, the cells were lysed in Cell-Lytic Mammalian Cell Extraction Reagent (Sigma).
(§2) The cell extracts were then separately incubated with duplicate Hypromatrix Arrays for 2 hours at room temperature, followed by two washes following the manufacturer's (Hypromatrix) protocol. The Hypromatrix Array is a nylon membrane blotted with antibodies to the transcription factors listed in Table 1 (custom manufactured by Hypromatrix). An antibody cocktail specific for phosphorylated-tyrosine, phosphorylated-serine and phosphorylated-threonine (Zymed) was added, incubated for 1 hour. Then, an anti-immunoglobulin antibody labeled with biotin was added. After washing the anti-immunoglobulin-biotin away, streptavidin-peroxidase was added, and the arrays given a final wash before adding a peroxidase-reactive luminescent substrate.

[3] = system: fyn; test: as above; format: cell-based, human; parameters: key: 0 (negative); + to ++++ (positive); + to ++++ (positive); + to ++++ (positive); + to ++++ (positive); conditions: day 18 TRiPS cells + CD3/CD28 beads, 30 minutes at 37° C.; 0.5 mM DA-DKP or 1:500 dilution of HC 2626
Method: as §1, §2

[4] = system: pI3 kinase/p85; test: as above; format: cell-based, human; parameters: key: 0 (negative); + to ++++ (positive); + to ++++ (positive); + to ++++ (positive); + to ++++ (positive); conditions: day 18 TRiPS cells + CD3/CD28 beads, 30 minutes at 37° C.; 0.5 mM DA-DKP or 1:500 dilution of HC 2626
Method: as §1, §2

[5] = system: csk; test: as above; format: cell-based, human; parameters: key: 0 (negative); + to ++++ (positive); + to ++++ (positive); + to ++++ (positive); + to ++++ (positive); conditions: day 18 TRiPS cells + CD3/CD28 beads, 30 minutes at 37° C.; 0.5 mM DA-DKP or 1:500 dilution of HC 2626
Method: as §1, §2

[6] = system: p38 MAPK; test: as above; format: cell-based, human; parameters: key: 0 (negative); + to ++++ (positive); + to ++++ (positive); + to ++++ (positive); + to ++++ (positive); conditions: day 18 TRiPS cells + CD3/CD28 beads, 30 minutes at 37° C.; 0.5 mM DA-DKP or 1:500 dilution of HC 2626
Method: as §1, §2

[7] = system: CBP; test: as above; format: cell-based, human; parameters: key: 0 (negative); + to ++++ (positive); + to ++++ (positive); + to ++++ (positive); + to ++++ (positive); conditions: day 18 TRiPS cells + CD3/CD28 beads, 30 minutes at 37° C.; 0.5 mM DA-DKP or 1:500 dilution of HC 2626
Method: as §1, §2

[8] = system: Rap1; test: as above; format: cell-based, human; parameters: key: 0 (negative); + to ++++ (positive); + to ++++ (positive); + to ++++ (positive); + to ++++ (positive); conditions: day 18 TRiPS cells + CD3/CD28 beads, 30 minutes at 37° C.; 0.5 mM DA-DKP or 1:500 dilution of HC 2626
Method: as §1, §2

[9] = system: IκB-α; test: as above; format: cell-based, human; parameters: key: 0 (negative); + to ++++ (positive); + to ++++ (positive); + to ++++ (positive); + to ++++ (positive); conditions: day 18 TRiPS cells + CD3/CD28 beads, 30 minutes at 37° C.; 0.5 mM DA-DKP or 1:500 dilution of HC 2626
Method: as §1, §2

[10] = system: Akt ½; test: as above; format: cell-based, human; parameters: key: 0 (negative); + to ++++ (positive); + to ++++ (positive); + to ++++ (positive); + to ++++ (positive); conditions: day 18 TRiPS cells + CD3/CD28 beads, 30 minutes at 37° C.; 0.5 mM DA-DKP or 1:500 dilution of HC 2626
Method: as §1, §2

[11] = system: c-jun; test: as above; format: cell-based, human; parameters: key: 0 (negative); + to ++++ (positive); + to ++++ (positive); + to ++++ (positive); + to ++++ (positive); conditions: day 18 TRiPS cells + CD3/CD28 beads, 30 minutes at 37° C.; 0.5 mM DA-DKP or 1:500 dilution of HC 2626
Method: as §1, §2

[12] = 12 days after stimulation with anti-CD3 OKT3 antibody, 0.5 mM DA-DKP

Substance: Asp-Ala diketopiperazine [DA-DKP]
- secretion of IL-16 from TriPS cells (FIG. 2) [1, 12]: decreased
- secretion of TNFα from TriPS cells (FIG. 2) [1, 12]: decreased
- release of pre-formed cytokines ([1]; TRiPS cells): inhibited
- effect on TNFα secretion from TriPS cells (FIG. 4) ([1]; early in the stimulation cycle): inhibitory
- effect on TNFα secretion from TriPS cells (FIG. 4) ([1]; later in the cycle (day 14)): stimulatory
- ERK1 phosphorylation score ([2]; day 18 TRiPS cells + CD3/CD28 beads): +
- cytokine transcriptional factor activation (ERK1/2) ([2]; day 18 TRiPS cells, CD3/CD28 beads): inhibited
- fyn phosphorylation score [3]: +
- pI3 kinase/p85 phosphorylation score [4]: +
- csk phosphorylation score [5]: +
- p38 MAPK phosphorylation score [6]: +++
- CBP phosphorylation score [7]: ++
- Rap1 phosphorylation score [8]: ++
- IκB-α phosphorylation score [9]: +
- Akt ½ phosphorylation score [10]: +++
- c-jun phosphorylation score [11]: +

— patent US11369598B2, “Treatment of T-cell mediated diseases” (Ampio Pharmaceuticals, Inc., priority 2003, dated 2022)
